Series [1] deals with human acetylcholineesterase (Homo sapiens, UniProt P22303). In words: Human acetylcholineesterase activity in vitro assay (CEREP). Format: biochemical.
Series [2] can be described thus: Stability in USP simulated gastric juice. Format: in vitro ADME. The note with it: USP SGF pH 1.1, pepsin […], prodrug 20 μg/mL. The text has this: To minimize the direct inhibitory action of this drug on gastric emptying/gut motility—and resultant nausea—the prodrug should not undergo premature chemical or enzymic cleavage back to the parent drug while within the gut lumen.

The nature of series [3]: Stability in simulated intestinal juice (FaSSIF). Format: in vitro ADME. The note with it: FaSSIF pH 6.5, pancreatin 1%, prodrug 20 μg/mL. As for the experimental part: (§1) To avoid direct interaction between the active drug and the gut microfloral population, the prodrug should not undergo premature chemical or enzymic cleavage back to the parent dug while within the gut lumen. To confirm this the prodrugs were incubated with USP SGF (simulated gastric fluid), FeSSIF (fed state simulated intestinal fluid) and FaSSIF (fasted state simulated intestinal fluid) and remaining prodrug and any generated active drug assayed by use of a qualified LC-MS/MS analytical method.
Method—Prodrug (20 μg/mL) in the FaSSIF cocktail comprising sodium taurocholate 3 mM, lecithin 0.75 mM, NaOH 8.7 mM, NaH2PO4. H2O 28.7 mM, NaCl 106 mM, pancreatin 1% (overall pH 6.5) was incubated for 2 h at 37° C. After acidifying the incubation to stop any reaction the amount of prodrug remaining and drug generated were determined using a qualified LC-MS/MS method.
(§2) To minimize the direct inhibitory action of this drug on gastric emptying/gut motility—and resultant nausea—the prodrug should not undergo premature chemical or enzymic cleavage back to the parent drug while within the gut lumen. To confirm this, the prodrugs were incubated with USP SGF (simulated gastric fluid), FeSSIF (fed state simulated intestinal fluid) and FaSSIF (fasted state simulated intestinal fluid) and remaining prodrug, and any generated active drug, assayed by use of a qualified LC-MS/MS analytical method.
Prodrug (20 μg/mL) in the FaSSIF cocktail comprising sodium taurocholate 3 mM, lecithin 0.75 mM, NaOH 8.7 mM, NaH2PO4. H2O 28.7 mM, NaCl 106 mM, pancreatin 1% (overall pH 6.5) was incubated for 2 h at 37° C. After acidifying the incubation to stop any reaction the amount of prodrug remaining and drug generated were determined using a qualified LC-MS/MS method.
(§3) To avoid direct interaction between the active drug and the gut, the prodrug should not undergo premature chemical or enzymic cleavage back to the parent dug while within the gut lumen. To confirm this the prodrugs were incubated with USP SGF (simulated gastric fluid), FeSSIF (fed state simulated intestinal fluid) and FaSSIF (fasted state simulated intestinal fluid) and remaining prodrug and any generated active drug assayed by use of a qualified LC-MS/MS analytical method.

A short description of series [4]: Stability in simulated intestinal juice (FeSSIF). The note with it: FeSSIF pH 5.0, pancreatin 1%. Format: in vitro ADME. As to the method: as §1
Pancreatin was again added at 1%.
as §2, §3

A short description of series [5]: Bioavailability of donepezil from its prodrugs in the male beagle dog. The note with it: relative bioavailability of donepezil vs dosing donepezil itself, male dogs. From the text:
(§4) Subsequent pharmacokinetic analysis was then undertaken using Win NonLin to generate the relevant PK parameters including Cmax, Tmax and AUC and T1/2.

Series [6] is described as follows: Bioavailability of donepezil from its prodrugs in the cynomolgus monkey. As to conditions: relative bioavailability of donepezil vs dosing donepezil itself, male monkeys.
Source text: as §4

“And” between values parts separate entries of the source, which are not always exact repeats. Equal values may be shown once. Bounds are passed on as bounds.

This is an account of results in patent US20120202756A1, “USE OF PRODRUGS TO AVOID GI MEDIATED ADVERSE EVENTS” (priority 2009, published 2012).

By IC50 is commonly meant the concentration that gives 50% inhibition.

Sequence of human acetylcholineesterase (P22303 32-614): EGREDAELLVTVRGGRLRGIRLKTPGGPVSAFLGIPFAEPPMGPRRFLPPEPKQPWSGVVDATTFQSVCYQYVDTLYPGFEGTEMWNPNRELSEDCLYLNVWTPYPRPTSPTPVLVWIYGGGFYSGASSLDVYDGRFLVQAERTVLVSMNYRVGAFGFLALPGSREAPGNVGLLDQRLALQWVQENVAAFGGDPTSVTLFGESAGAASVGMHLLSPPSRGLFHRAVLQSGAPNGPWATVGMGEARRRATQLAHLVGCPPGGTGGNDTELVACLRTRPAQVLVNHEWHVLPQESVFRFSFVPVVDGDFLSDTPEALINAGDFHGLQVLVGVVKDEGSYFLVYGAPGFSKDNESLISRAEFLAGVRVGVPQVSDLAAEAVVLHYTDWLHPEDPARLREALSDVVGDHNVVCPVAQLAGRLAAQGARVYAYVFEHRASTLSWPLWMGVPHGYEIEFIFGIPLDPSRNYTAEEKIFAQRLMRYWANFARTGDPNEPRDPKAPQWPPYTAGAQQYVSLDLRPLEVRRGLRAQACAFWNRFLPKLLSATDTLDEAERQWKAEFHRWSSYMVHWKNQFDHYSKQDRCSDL

`COc1cc2c(cc1OC)C(OC(=O)CCCC(=O)O)=C(CC1CCN(Cc3ccccc3)CC1)C2` [Donepezil glutaryl enol ester, Donepezil-(Glutaryl) enol ester] registered an IC50 in series [1] of 830 nM.
Consider `COc1cc2c(cc1OC)C(OC(=O)CCCC(=O)N[C@H](C(N)=O)C(C)C)=C(CC1CCN(Cc3ccccc3)CC1)C2` [Donepezil glutaryl valinamide, donepezil[glutaryl-(S)-valinamide]enol ester], for which, in series [2], the “Simulated gastric juice (1 h, 37° C.) % active drug generated” value is reported as below 2.0%. In addition, the “Simulated intestinal juice (2 h, 37° C.) (FaSSIF) % active drug generated” value in series [3] is reported as below 2.0%. For the same molecule, the “Simulated intestinal juice (2 h, 37° C.) (FeSSIF) % active drug generated” value in series [4] is below 2.0%. The Frel in series [5] (individual animals) was 85% and 25% and 62% and 44% and 28%; in series [5] (mean) it was 49%; in series [6] (individual animals), 97% and 44% and 99% and 64% and 89%; in series [6] (mean), 79%.
